According to patent publication US8222293B2, “Treating learning deficits with inhibitors of Hmg CoA reductase” (Regents of the University of Carolina, priority 2004, dated 2012):

What was measured:
[1] = tested on: phosphorylated p44/42 MAPK; assay: Western blot for p44/42 MAP kinase phosphorylation in hippocampal extracts of treated mice
p21Ras-GTP = assay: p21Ras activity assay (GST-Raf1-RBD pull-down) in hippocampal extracts of treated mice
nf1+/− mice [2] = assay: Prepulse inhibition; type: in vivo, mouse
Procedure: Following an acclimation period of 5 min, mice were presented with a total of 20 noise bursts (40 ms duration, 120 dB, <1 ms rise/fall time). In the prepulse inhibition phase, mice were presented with a total of 90 trials. Three prepulse intensities were tested: 70, 75 and 80 dB. Prepulses were 20 ms in duration with a rise/fall time of less than 1 ms. For each prepulse intensity, there were three types of trial: prepulse alone, prepulse/startle stimulus and startle stimulus alone. In the prepulse/startle stimulus trial, the onset of the prepulse preceded the onset of the startle stimulus by 100 ms. Background noise levels were maintained at 68 dB throughout testing, and the trials were spaced […].
This task assays sensory “gating” of environmental stimuli. A powerful and sudden acoustic stimulus will elicit a whole body startle response. When the startle producing stimulus is preceded by a weak pre-stimulus (by approximately 100 milliseconds) the startle response is inhibited in normal persons and animals. Previous studies show a high incidence of ADHD in NF1 and support an association between ADHD and learning problems in these children.

[3] = tested on: hippocampal slices of nf1+/− mice; assay: Hippocampal LTP at the Schaffer collateral/CA1 synapse in slices from treated mice; type: in vivo, mouse; conditions: 10 mg/kg s.c. once per day for 4 days
nf1+/− mice [4] = assay: Water maze test (spatial learning); type: in vivo, mouse
Source text: The basic protocol for the water maze experiments has been previously described. Mice from the 129T2/SvEmsJ-C57B/6N F1 genetic background were given two trials per day (30-s inter-trial intervals) with a probe trial (60 s) at the end of training day 5 and 7.
Spatial problems are among the most common cognitive deficits in individuals affected with NF1. […] Mice were trained with two trials per day.
In the probe trials the platform was removed from the pool and the mice were allowed to search for it for 60 seconds.

nf1+/− mice [5] = assay: Lateralized reaction time task (attention); type: in vivo, mouse; conditions: 10 mg/kg oral pellets daily, target stimulus duration 0.5 sec
Source text: Mice were fed 1.5 gm of chow every day in their home cages (1 hr after experiment). […] Mice were trained in miniaturized versions of a “5-choice” box (Med Associates Inc., St Albans Vt.) that was equipped with a curved wall with horizontal array five apertures that could be internally illuminated. The opposite wall was fitted with a food receptacle where pellets were delivered as reinforcers. The animals were shaped to produce a “poke and hold” response in the central aperture. A correct response was scored when the animals correctly poked a side aperture that had been indicated during the poke and hold response. […] When animals performed at 75% accuracy at 1 second target stimulus duration they entered the test phase. Mice were tested on a variable duration condition in which the target aperture was illuminated for 0.5, 1.0 or 2.0 sec (varied from trial to trial within the session). Correct responses/total trials were measured, which vary as a function of the target stimulus duration and was therefore analyzed with repeated measures analysis of variance (the repeated measure being stimulus duration).
Besides spatial impairments, NF-1 patients also show attention deficits. […] For this purpose, a lateralized reaction-time task, a test that measures divided visuo-spatial attention, was used. […]

## CC[C@H](C)C(=O)O[C@H]1C[C@@H](C)C=C2C=C[C@H](C)[C@H](CC[C@@H]3C[C@@H](O)CC(=O)O3)[C@H]21 [lovastatin]
[1]; WT mice, 0-50 mg/kg s.c. once per day for 4 days, 6 hours after final injection
  amount of phosphorylated p44/42 MAPK (the active form) in hippocampus: decreased the amount of phosphorylated p44/42 MAPK (the active form) in a dose-dependent fashion
[1]; nf1+/− mice, 10 mg/kg s.c. once per day for 4 days
  levels of phosphorylated p44/42 MAPK in hippocampus: decreased the levels of phosphorylated p44/42 MAPK
p21Ras-GTP; WT as printed in b156 (FIG. 1c)
  hippocampal levels of p21Ras-GTP: decreased the hippocampal levels of p21Ras-GTP in WT
p21Ras-GTP; nf1+/− mice, FIG. 1c legend
  active p21Ras (p21Ras-GTP): decreased active p21Ras (p21Ras-GTP)
nf1+/− mice [2]; 10 mg/kg oral pellets daily, F1,30=6.61, P<0.05
  PPI performance, main effect of treatment: resulted in an increase in performance
nf1+/− mice [2]; nf1+/− animals on lovastatin, PLSD P=0.877
  PPI performance, versus WT animals on placebo: indistinguishable from that of WT animals on placebo
[3]
  LTP deficits of nf1+/− mice: completely reversed the LTP deficits
[3]; nf1+/− mice, PLSD P=0.602
  amount of LTP induced, versus WT: equivalent to that of WTs
[3]; nf1+/− mice, five theta-burst stimulation, PLSD P<0.05
  amount of LTP induced, versus untreated nf1+/− mutants: significantly higher than that induced in mutants
nf1+/− mice [4]; WT mice on lovastatin, t19=2.159, P<0.05
  proximity to exact platform position versus opposite position, probe trial: searched closer to the exact platform position than to the opposite position in the pool
nf1+/− mice [4]; dose effective in nf1+/− mice (10 mg/kg)
  cognitive function in control mice: did not affect cognitive function in control mice
nf1+/− mice [4]; nf1+/− mice on lovastatin, t20=2.170, P<0.05
  proximity to exact platform position versus opposite position, probe trial: searched closer to the exact platform position than to the opposite position in the pool
nf1+/− mice [4]; nf1+/− mice, 10 mg/kg s.c. 3 days before training then 6 hours before training daily, P=0.862
  time spent in training quadrant, day 7 probe trial, versus WT: spent as much time as WTs in the training quadrant
nf1+/− mice [4]; nf1+/− mice, 10 mg/kg s.c., P<0.05
  time spent in training quadrant, day 7 probe trial, versus mutants given placebo: significantly more time than mutants given placebo
nf1+/− mice [5]; PLSD P<0.05
  correct response rate, versus nf1+/− given placebo: significantly higher
nf1+/− mice [5]; PLSD P=0.148
  correct response rate, versus WT mice: indistinguishable from that of WT mice
